Measured values reported in patent publication US8017162B2, “Anti-inflammatory agent” (Oryza Oil & Fat Chemical Co., Ltd., priority 2005, dated 2011).

Tested on: RAW264.7 cells
Experiment: NO production inhibition test (LPS, Griess Method)
Format: cell-based, mouse
Procedure: A 200 microliter each of the continuously-cultivated RAW264.7 cells (10^6 cells/mL) should be seeded into 48-well plate. After 24 hours, replace the culture medium with a serum-free culture medium. Then, add the LPS (final concentration: 10 microgram/mL) and samples (Examples 1 & 2), and then cultivate for 24 hours. Collect the supernatant (100 microliter) and determine the amount of NO by the Griess Method.

[1] = 1 μg/mL, LPS 10 microgram/mL, 24 hours, average ± SD

Compound | NO in supernatant [1] [µM] | NO in supernatant (3 μg/mL) [µM] | NO in supernatant (10 μg/mL) [µM] | NO in supernatant (30 μg/mL) [µM] | Inhibition ratio (NO production) (100 μg/mL) | NO in supernatant (100 μg/mL) [µM] | Inhibition ratio (NO production) (10 μg/mL) | Inhibition ratio (NO production) (30 μg/mL) | Effect on NO production among the ingredients (compared with the other components) | Inhibition ratio (NO production) (1 μg/mL) | Inhibition ratio (NO production) (3 μg/mL)
CCCCCCCCC[C@H](O)CC(=O)CCc1ccc(O)c(OC)c1 [Example 10-gingerol, 10-gingerol] | 4.44 ± 0.27 | 4.32 ± 0.16 | 4.33 ± 0.50 | 4.28 ± 0.72 | (21.1) % | 3.55 ± 0.08 | – | – | – | – | –
CCCCC/C=C/C(=O)CCc1ccc(O)c(OC)c1 [Example 6-shogaol, 6-shogaol] | 3.81 ± 0.29 | 3.60 ± 0.29 | 3.21 ± 0.31 | 2.79 ± 0.09 | (90.7) % | 1.22 ± 0.04 | (13.6) % | (29.8) % | comparatively strong effect | – | –
CCCCCCCCC/C=C/C(=O)CCc1ccc(O)c(OC)c1 [Example 10-shogaol, 10-shogaol] | 2.78 ± 0.10 | 2.88 ± 0.11 | 2.76 ± 0.10 | 2.68 ± 0.70 | (31.2) % | 2.62 ± 0.71 | (24.4) % | (28.3) % | – | (23.4) % | (18.5) %
CCCCCCC[C@H](O)CC(=O)CCc1ccc(O)c(OC)c1 [Example 8-gingerol, 8-gingerol] | 4.17 ± 0.27 | 4.06 ± 0.24 | 3.86 ± 0.32 | 3.59 ± 0.21 | (31.5) % | 3.20 ± 0.17 | (13.3) % | (20.7) % | – | (4.7) % | (7.7) %
CCC[C@H](O)CC(=O)CCc1ccc(O)c(OC)c1 [Example 4-gingerol, 4-gingerol] | 4.98 ± 0.22 | 5.10 ± 0.24 | 4.98 ± 0.22 | 5.03 ± 0.45 | – | 4.98 ± 0.26 | – | – | – | – | –
